Measured values: patent US6864046B1, “Method for collecting and preserving semen” (Texas Tech University, priority 2000, dated 2005)

These compounds were tested on spermatozoa. Settings: calcium compound substituted for calcium chloride in Ringer's lactate; culturing 1-24 hr.

**Q.** Which “semen function (percent motility, FIGS. 5a and 5b)” value does the source give for `O=C([O-])[O-].[Ca+2]` [calcium carbonate] here?
**A.** maintained best

**Q.** Which “semen function (percent motility, FIGS. 5a and 5b)” value does the source give for calcium gluconate here?
**A.** maintained best

**Q.** For calcium phosphate, which “semen function (percent motility, FIGS. 5a and 5b)” value is on record?
**A.** maintained best
